Laboratory results taken from PubChem BioAssay (NCI).
Where “and” joins values, the source holds several entries; their conditions need not be identical. Equal entries are not always repeated.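 Growth conditions: 96-well plates. Treatment: test compound, 48 hours, 5 concentrations. Analysis: linear interpolation between bracketing concentrations; unreached endpoints set to highest concentration. At the GI50, growth is halved. TGI denotes the concentration required for complete inhibition of growth.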

What was measured:
Assay in all cases: inhibition of tumour cell growth, NCI panel, 48 h
UACC-257 melanoma = system: UACC-257 melanoma
SNB-78 CNS = system: SNB-78 CNS
A549 NSCLC = system: A549 NSCLC
RPMI-8226 leukemia = system: RPMI-8226 leukemia
SNB-75 CNS = system: SNB-75 CNS
NCI-H23 lung = system: NCI-H23 lung
ACHN renal = system: ACHN renal
HS 578T breast = system: HS 578T breast
MCF7 breast = system: MCF7 breast

Row | SMILES | TGI (UACC-257 melanoma) | TGI (SNB-78 CNS) | TGI (A549 NSCLC) | TGI (RPMI-8226 leukemia) | TGI (SNB-75 CNS) | TGI (NCI-H23 lung) | TGI (ACHN renal) | GI50 (HS 578T breast) | TGI (HS 578T breast) | GI50 (UACC-257 melanoma) | GI50 (A549 NSCLC) | GI50 (RPMI-8226 leukemia) | GI50 (SNB-75 CNS) | GI50 (NCI-H23 lung) | GI50 (MCF7 breast) | TGI (MCF7 breast) | GI50 (ACHN renal)
1 | CCN(N=O)C1C2(CCCC2)NC(=O)C12CCCC2 (configuration not stated) | > 100 µM | > 100 µM | > 100 µM | > 100 µM | > 100 µM | > 100 µM | > 100 µM | – | – | – | – | – | – | – | – | – | –
2 | COc1ccc(-c2cc(=O)c3c(OC)c4ccoc4c(/C=C/C=O)c3o2)cc1 | 14.2 µM | – | 72.4 µM | 5.29 µM | 20.6 µM | 13 µM | > 100 µM | 10.4 µM | > 100 µM | 3.63 µM | 18.5 µM | 1.37 µM | 3.13 µM | 2.8 µM | 1.63 µM | > 100 µM | 19.3 µM
3 | Cc1c(O)cccc1C(=O)N[C@@H](CSc1ccccc1)[C@H](O)CN1C[C@H]2CCCC[C@H]2C[C@H]1C(=O)NC(C)(C)C | 13.8 µM and 24.7 µM | – | 10.8 µM and 22.8 µM | 4.69 µM and 7.21 µM | 14.5 µM and 18.4 µM | 30.6 µM and 26.3 µM | 13.1 µM and 17.1 µM | 4.82 µM and 4.87 µM | > 58 µM and 20.3 µM | 3.66 µM and 6.84 µM | 3.01 µM and 4.94 µM | 2.23 µM and 2.01 µM | 2.77 µM and 2.58 µM | 6.68 µM and 7 µM | 6.22 µM and 3.9 µM | 24.4 µM and 15.7 µM | 3.02 µM and 5.69 µM
4 | c1cc[n+](Cc2c3ccccc3cc3c2ccc2ccccc23)cc1 | 5.48 µM | – | 27.7 µM | 8.87 µM | 5.36 µM | 11.6 µM | > 100 µM | 1.96 µM | 8.65 µM | 2.34 µM | 7.31 µM | 2.31 µM | 1.35 µM | 1.71 µM | 3.25 µM | 13.2 µM | > 100 µM
5 | Cc1[nH]c(=O)n2c(C)nnc2c1C(=O)O | – | > 100 µM | – | > 100 µM | – | > 100 µM | > 100 µM | – | – | – | – | – | – | – | – | – | –
6 | COc1ccc(C2=C(c3ccccc3)C(=O)N3CCCC3C2)cc1 (configuration not stated) | > 100 µM | – | > 100 µM | > 100 µM | > 100 µM | > 100 µM | > 100 µM | > 100 µM | > 100 µM | > 49 µM | 0.195 µM | 0.318 µM | 18.9 µM | > 32.3 µM | 2.98 µM | > 100 µM | 2.39 µM
7 | COc1ccc2[nH]c(C(=O)OCc3ccc4c(Br)cc(Br)c(O)c4n3)cc2c1 | 2.85 µM | – | 3.54 µM | 1.29 µM | 1.73 µM | 2.99 µM | 1.35 µM | 1.66 µM | 4.97 µM | 1.38 µM | 1.63 µM | 0.308 µM | 0.307 µM | 1.38 µM | 0.442 µM | 2.05 µM | 0.343 µM
8 | CS(=O)(=O)N1CCC(Nc2ncc(C(=O)c3c(F)cccc3F)c(N)n2)CC1 | > 25 µM | – | > 25 µM | > 25 µM | 24.3 µM | > 25 µM | > 25 µM | 15.1 µM | > 25 µM | 13.2 µM | 6.14 µM | 7.67 µM | > 10.9 µM | 8.6 µM | 2.11 µM | > 25 µM | 7.06 µM
9 | CC[C@]12C=CCN3CC[C@]4(C(=C(C(=O)OC)C1)Nc1cc5c(cc14)[C@@H]1[C@H](O5)[C@@H](O)[C@@]4(CC)CC(C(=O)OC)=C5Nc6ccccc6[C@@]56CCN1[C@@H]46)[C@@H]32 | 25 µM and 42.8 µM | – | 12.7 µM and > 100 µM | 2.49 µM and 1.5 µM | 25 µM and 18.7 µM | 4.51 µM and 1.46 µM | 2.86 µM and 1.79 µM | 0.344 µM and 0.218 µM | 25 µM and > 100 µM | 0.582 µM and 0.672 µM | 1.2 µM and 0.875 µM | 0.141 µM and 0.234 µM | 0.0335 µM and 0.161 µM | 0.577 µM and 0.316 µM | 0.144 µM and 0.275 µM | 25 µM and 26.6 µM | 0.189 µM and 0.275 µM
10 | COc1ccccc1CNCCCN1C(=O)c2ccc3c4c(ccc(c24)C1=O)C(=O)N(CCCNCCCCNCCCN)C3=O | 0.33 µM | – | 2.72 µM | 10.8 µM | 1.86 µM | 2.05 µM | 4.44 µM | 1.34 µM | 5.49 µM | 0.176 µM | 0.581 µM | 0.626 µM | 0.609 µM | 0.356 µM | 0.2 µM | 0.466 µM | 0.747 µM
11 | Cc1nc2ccc(-n3ncc(C(=O)c4cc5ccccc5[nH]4)c3N)cc2[nH]1 | > 100 µM | – | > 100 µM | 54.7 µM | > 100 µM | > 100 µM | > 100 µM | 10.5 µM | > 100 µM | 26.6 µM | 8.46 µM | 8.1 µM | 0.945 µM | 15.9 µM | 4.52 µM | > 100 µM | 5.73 µM
12 | C=C(C(=O)c1ccccc1)C(NC(C)(C)C)c1ccccc1 (configuration not stated) | 4.81 µM | – | 7.79 µM | 6.44 µM | 16.6 µM | 4.93 µM | 4.51 µM | 5.56 µM | 75.9 µM | 1.69 µM | 2.74 µM | 1.84 µM | 4 µM | 1.77 µM | 1.06 µM | 8.21 µM | 1.59 µM
13 | Cc1cc(O)ccc1C1(c2ccc(O)cc2C)OC(=O)c2ccccc21 | 46 µM | – | 37 µM | 78.7 µM | 29.5 µM | 33.4 µM | 31.8 µM | 18.9 µM | 46.3 µM | 23.8 µM | 20.8 µM | 28.1 µM | 15.1 µM | 16.6 µM | 18.1 µM | 36.5 µM | 16 µM
14 | Cc1ccc(C2=NN(c3ccc(S(=O)(=O)NC(=O)NCc4ccccc4)cc3)C(c3ccc(N(C)C)cc3)C2)c(C)c1 (configuration not stated) | > 100 µM | – | 16.4 µM | 10.6 µM | > 100 µM | 17.8 µM | > 100 µM | 2.48 µM | 7.02 µM | 4.64 µM | 3.46 µM | 2.88 µM | 2.44 µM | 3.6 µM | 2.99 µM | 31.2 µM | 3.97 µM
15 | CC(C)[C@@]12C[C@@H](OC(=O)COC(=O)c3ccccc3)[C@@](C)(O1)[C@@H]1CC[C@@H](C)[C@H]1[C@@H]2OC(=O)/C=C/c1ccccc1 | > 100 µM | – | > 100 µM | > 100 µM | > 100 µM | > 100 µM | – | 0.0135 µM | 0.0701 µM | > 100 µM | > 100 µM | 82.1 µM | > 100 µM | > 100 µM | > 65 µM | > 100 µM | 0.0469 µM
16 | CCc1ccc(Oc2c(-c3ccc(OCCc4cccc(C(F)(F)F)c4)cc3O)n[nH]c2C(F)(F)F)cc1 | 10.6 µM | – | 11.1 µM | 7.55 µM | 12.1 µM | 5.89 µM | 7.66 µM | 6.04 µM | 15.4 µM | 4.58 µM | 4.89 µM | 1.8 µM | 5.82 µM | 1.53 µM | 2.24 µM | 7.82 µM | 2.18 µM
17 | COc1cc(-c2oc3c(OC)c(O)c(OC)c(O)c3c(=O)c2OC)cc(OC)c1OC | > 100 µM | – | > 100 µM | > 100 µM | 60.2 µM | > 100 µM | > 100 µM | – | 64.9 µM | – | – | – | – | – | – | > 100 µM | –
18 | CC(C)c1cnc(-c2cc(Cl)ccc2F)cc1Nc1ccncc1C(=O)NC(CO)CO | 33.7 µM | – | 62.3 µM | 52.6 µM | 25.9 µM | 33.5 µM | 29 µM | 7.31 µM | 30.6 µM | 16.3 µM | 11.1 µM | 13.5 µM | 0.0515 µM | 13.9 µM | 11.6 µM | 27.3 µM | 11.1 µM
19 | Cn1c2c(c3ccccc31)CCN1C[C@@H]3CCCC[C@H]3C[C@@H]21 | > 100 µM | – | > 100 µM | > 26.3 µM | > 100 µM | > 100 µM | > 100 µM | 4.51 µM | > 100 µM | 8.14 µM | 3.1 µM | 3.06 µM | 4.32 µM | 3.55 µM | 3.17 µM | > 72.8 µM | 4.32 µM
20 | CCOC(=O)c1c(C)n([O-])c2cc(F)c(F)cc2[n+]1=O | 3.69 µM | – | 26 µM | 28.2 µM | 3.54 µM | 3.78 µM | 3.23 µM | 1.73 µM | 5.06 µM | 1.7 µM | 6.78 µM | 6.18 µM | 1.91 µM | 1.88 µM | 4.32 µM | > 37.4 µM | 1.73 µM
21 | C[n+]1cccc(NC(=O)c2ccc3ccc4ccc(C(=O)Nc5ccc[n+](C)c5)nc4c3n2)c1 | > 100 µM | – | > 100 µM | > 100 µM | 9.9 µM | > 45 µM | > 100 µM | 4.51 µM | > 68.6 µM | > 100 µM | 0.155 µM | 2.99 µM | 1.15 µM | 1.41 µM | 2.35 µM | > 100 µM | 4.75 µM
22 | CCN1CCN(Cc2ccc(NC(=O)Nc3nc(-c4cc(OC)c(OC)c(OC)c4)cs3)cc2C(F)(F)F)CC1 | 3.08 µM | – | 4.45 µM | 4.24 µM | 3.91 µM | 3.59 µM | 4.1 µM | 1.65 µM | 5.04 µM | 1.69 µM | 1.96 µM | 1.63 µM | 1.19 µM | 1.69 µM | 1.44 µM | 3.02 µM | 1.91 µM
